# Measurements as given in patent US10227347B2, “Purinyl-N-hydroxyl pyrimidine formamide derivative, preparation methods and uses thereof” (Guizhou Bailing Group Pharmaceutical CO., LTD., priority 2015, dated 2019).
# Where two headings read alike, the source gives them in different places.
# Columns and labels:
# [1] = test system: A2780s cells (ovarian cancer); assay: Cell proliferation inhibition, A2780s (MTT); type: cell-based; details: Homo sapiens
# Method: (§1) The tumor cell lines are purchased from American Type Culture Collection (ATCC) and cultivated to the status of logarithmic growth as per the cultural method recommended by ATCC. The cells in logarithmic phase are spread on a 96 well plate as per 2000-3000/well; as for anchorage-dependent cells, the compound should be added in the test wells at certain concentration for incubation for 96 h after cell adherence. Determining cell proliferation activities with method MTT for tumor cells representing solid tumor model and with method cck-8 for tumor cells representing hematologic tumor model, and analyzing the result data with the software GraphPad Prism.
# (§2) Calculating the value of IC50 as per the formula: Y=background data+(top data−background data)/(1+10^((Log IC50−X)*rate of curve)). Where, Y refers to the inhibition ratio (%) and X refers to the compound concentration.
# [2] = test system: MV4-11 cells (acute myeloid leukemia); assay: Cell proliferation inhibition, MV4-11 (cck-8); type: cell-based; details: Homo sapiens
# Method: as §1, §2
# [3] = test system: hct116 cells (colon cancer); assay: Cell proliferation inhibition, hct116 (MTT); type: cell-based; details: Homo sapiens, HCT-116
# Method: as §1, §2
# [4] = target: T1, PI3Kα (Homo sapiens, UniProt P42336); assay: PI3Kα activity inhibition (Kinase-Glo); type: biochemical
# T1 construct: purchased Invitrogen PV4788
# Method: Detecting the inhibition capability of the compound to PI3Kα and PI3Kδ activities with Kinase-Glo (purchased from Promege Company; Catalog No.: V3771). […] The reaction system also comprises substrates as PIP2 (4, 5-diphosphoinositide, purchased from Life Technologies Company) and ATP (triphosadenine, purchased from Sigma Company). The reaction buffer system comprises 50 mM HEPES (4-hydroxyethylpiperazine ethane sulfonic acid), 3 mM MgCl2, 1 mM EGTA (ethylene glycol bis(2-amino ethylether)quadrol), 100 mM NaCl, 0.03% CHAPS (3-[3-(cholamidopropyl)dimethylamino]-1-propanesulfonic acid), 2 mM DTT (dithiothreitol). The pH value of the reaction buffer is 7.5. […] Mixing the system evenly for incubation under ambient temperature (for 1 h in PI3Kα test and for 2 h in PI3Kδ test). After incubation, adding 10 μL Kinase-Glo which has been preheated to ambient temperature into each reaction well to terminate the reaction; shaking it in dark place for 15 min after it is mixed evenly, then measuring the fluorescence intensity with a microplate reader and analyzing the result data with the software GraphPad Prism.
# (§3) Calculating the value of IC50 as per the formula: Y=background data+(top data−background data)/(1+10^((Log IC50−X)*rate of curve))
# Where, Y refers to the inhibition ratio (%) and X refers to the compound concentration.
# [5] = target: T2, HDAC1 (Homo sapiens, UniProt Q13547); assay: In vitro HDAC1 enzymatic activity inhibition (Lys-Ac-AMC substrate); type: biochemical
# T2 construct: purchased BPS Bioscience
# Method: Determining the inhibition capability to HDAC activity through the substrate method of fluorophore 4-amino-7-coumarin coupled Ac-peptide (Lys-Ac-AMC). HDAC1 protein is purchased from BPS Bioscience Company; the reaction buffer system is a modified tris(hydroxymethyl)aminomethane (TRIS) buffer (pH7.0). All small molecule compounds are prepared and dissolved by 100% DMSO (dimethyl sulfoxide). HDAC is prepared into the buffer as per certain concentration to be served as the enzyme solution; trypsin and the fluorophore 4-amino-7-coumarin coupled Ac-peptide substrate are prepared into the buffer as per certain concentration to be served as the substrate solution. Adding the compound into the reaction wells of the 384 well plate at the designed concentration, then adding 15 μL HDAC solution into the reaction wells (adding 15 μL blank buffer into the control well 0) for incubation under ambient temperature for 15 min; then adding 10 μL substrate solution to start reaction; during the reaction, the final concentration of HDAC1 protein is 6 nM, trypsin 0.05 μM and Ac-peptide 8 μM.
# as §3
# Where, Y refers to the inhibition ratio (%) and X refers to the compound concentration. […]
# Analyzing the result data with the software GraphPad Prism and calculating the value of IC50 as per the formula: Y=background data+(top data−background data)/(1+10^((Log IC50−X)*rate of curve)). Where, Y refers to the inhibition ratio (%) and X refers to the compound concentration.
# [6] = 96 h incubation, read-out: Proliferation IC50, Ovarian cancer A2780s
# [7] = 96 h incubation, read-out: Proliferation IC50, Acute myeloid leukemia MV4-11
# [8] = 96 h incubation, read-out: Proliferation IC50, Colon cancer hct116
# [9] = Table 1, graded, read-out: PI3Kα IC50
# [10] = Table 1, graded, read-out: HDAC1 IC50
# [11] = read-out: IC50 to proliferation of A2780s cells
# [12] = read-out: IC50 to proliferation of MV4-11 cells
# [13] = read-out: IC50 to proliferation of hct116 cells
# [14] = read-out: inhibition value IC50 to the activity of HDAC1
# T2 sequence (Q13547 whole entry, species assumed): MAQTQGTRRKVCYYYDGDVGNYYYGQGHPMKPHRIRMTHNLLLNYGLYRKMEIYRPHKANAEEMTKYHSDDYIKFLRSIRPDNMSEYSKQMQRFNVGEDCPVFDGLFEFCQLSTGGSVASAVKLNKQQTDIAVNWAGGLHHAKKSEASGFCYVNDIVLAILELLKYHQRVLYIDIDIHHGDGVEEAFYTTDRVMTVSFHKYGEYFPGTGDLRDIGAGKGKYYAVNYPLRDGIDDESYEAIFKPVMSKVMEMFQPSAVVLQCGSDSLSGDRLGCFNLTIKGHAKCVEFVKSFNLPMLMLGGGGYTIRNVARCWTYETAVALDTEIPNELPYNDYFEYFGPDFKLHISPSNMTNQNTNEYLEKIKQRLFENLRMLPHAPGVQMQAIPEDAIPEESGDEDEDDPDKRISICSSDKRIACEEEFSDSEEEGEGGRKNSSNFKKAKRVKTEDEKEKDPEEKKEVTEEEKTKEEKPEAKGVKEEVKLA
# T1 sequence (P42336 whole entry, species assumed): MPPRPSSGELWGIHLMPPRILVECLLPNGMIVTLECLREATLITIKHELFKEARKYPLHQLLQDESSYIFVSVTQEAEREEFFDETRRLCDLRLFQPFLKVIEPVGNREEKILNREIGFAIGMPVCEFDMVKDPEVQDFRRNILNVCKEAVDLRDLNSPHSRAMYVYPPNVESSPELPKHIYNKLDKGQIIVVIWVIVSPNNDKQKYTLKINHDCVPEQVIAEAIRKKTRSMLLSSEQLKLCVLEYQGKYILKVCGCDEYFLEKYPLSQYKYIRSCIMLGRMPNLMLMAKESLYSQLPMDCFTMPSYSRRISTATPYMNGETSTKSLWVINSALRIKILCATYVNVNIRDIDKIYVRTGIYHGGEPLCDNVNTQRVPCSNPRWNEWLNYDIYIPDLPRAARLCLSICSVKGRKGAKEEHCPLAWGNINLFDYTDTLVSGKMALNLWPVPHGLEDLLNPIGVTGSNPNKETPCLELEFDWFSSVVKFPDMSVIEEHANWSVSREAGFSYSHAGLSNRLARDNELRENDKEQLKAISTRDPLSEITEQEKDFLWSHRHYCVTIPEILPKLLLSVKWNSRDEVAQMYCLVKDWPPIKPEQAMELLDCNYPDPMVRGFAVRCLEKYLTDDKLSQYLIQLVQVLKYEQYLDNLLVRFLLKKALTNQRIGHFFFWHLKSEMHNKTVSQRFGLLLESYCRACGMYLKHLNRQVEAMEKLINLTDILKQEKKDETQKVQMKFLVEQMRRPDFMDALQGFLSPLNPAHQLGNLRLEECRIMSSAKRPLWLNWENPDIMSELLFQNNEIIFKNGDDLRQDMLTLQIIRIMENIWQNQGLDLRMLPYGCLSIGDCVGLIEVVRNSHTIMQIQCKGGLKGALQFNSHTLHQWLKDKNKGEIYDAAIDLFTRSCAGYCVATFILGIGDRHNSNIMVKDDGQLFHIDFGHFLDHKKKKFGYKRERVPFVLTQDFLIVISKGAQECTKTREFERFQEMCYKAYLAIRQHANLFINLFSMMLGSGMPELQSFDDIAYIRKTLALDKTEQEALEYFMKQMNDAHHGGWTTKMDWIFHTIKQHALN
# T1 sequence (P27986 whole entry partner, species assumed): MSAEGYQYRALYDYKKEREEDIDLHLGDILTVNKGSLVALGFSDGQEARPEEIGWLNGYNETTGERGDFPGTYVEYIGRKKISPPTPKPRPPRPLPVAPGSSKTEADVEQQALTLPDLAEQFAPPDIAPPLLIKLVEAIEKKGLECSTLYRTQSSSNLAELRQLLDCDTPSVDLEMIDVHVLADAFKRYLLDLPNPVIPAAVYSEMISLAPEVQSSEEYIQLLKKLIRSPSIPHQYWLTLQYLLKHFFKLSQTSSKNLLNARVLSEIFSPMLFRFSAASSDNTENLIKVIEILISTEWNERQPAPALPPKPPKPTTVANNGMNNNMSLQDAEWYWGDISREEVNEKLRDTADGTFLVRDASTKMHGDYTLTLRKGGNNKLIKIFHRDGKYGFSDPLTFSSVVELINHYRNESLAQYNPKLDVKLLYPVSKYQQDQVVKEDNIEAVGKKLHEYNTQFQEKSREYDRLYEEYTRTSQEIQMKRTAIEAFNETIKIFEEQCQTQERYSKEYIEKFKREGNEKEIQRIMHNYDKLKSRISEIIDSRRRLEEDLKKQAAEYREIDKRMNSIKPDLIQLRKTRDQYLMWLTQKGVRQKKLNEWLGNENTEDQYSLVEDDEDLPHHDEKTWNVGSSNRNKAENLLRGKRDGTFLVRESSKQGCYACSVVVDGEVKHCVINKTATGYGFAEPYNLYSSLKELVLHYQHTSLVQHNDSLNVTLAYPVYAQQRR
smiles,measurement,setting,value
"Cc1ccsc1-c1nc(N2CCOCC2)c2nc(CN(C)c3ncc(C(=O)NO)cn3)n(C)c2n1 [CLJ-19, 2-(((2-(3-methyl-2-thienyl)-9-methyl-6-morpholine-9H-purine-8-yl))methyl(methyl)amino)-N-hydroxyl pyrimidine-5-formamide]",IC50,[1]; [6],10 to 100 nM
same,IC50,[2]; [7],0.1 to 10 nM
same,IC50,[3]; [8],0.1 to 10 nM
same,IC50,[4]; [9],> 10000 nM
same,IC50,[5]; [10],< 100 nM
"CCCN(Cc1nc2c(N3CCOCC3)nc(-c3ccc4[nH]ncc4c3)nc2n1C)c1ncc(C(=O)NO)cn1 [CLJ-16, N-hydroxy-2-(((2-(1H-indazole-5-yl)-9-methyl-6-morpholine-9H-purine-8-yl))methyl(propyl)amino)pyrimidine-5-formamide]",IC50,[1]; [6],> 1000 nM
same,IC50,[2]; [7],> 1000 nM
same,IC50,[3]; [8],> 1000 nM
same,IC50,[4]; [9],> 10000 nM
same,IC50,[5]; [10],100 to 1000 nM
Cc1cscc1-c1nc(N2CCOCC2)c2nc(CN(C)c3ncc(C(=O)NO)cn3)n(C)c2n1 [CLJ-23],IC50,[1]; [6],0.1 to 10 nM
same,IC50,[1]; [11],0.1 to 10 nM
same,IC50,[2]; [7],0.1 to 10 nM
same,IC50,[2]; [12],0.1 to 10 nM
same,IC50,[3]; [8],0.1 to 10 nM
same,IC50,[3]; [13],0.1 to 10 nM
same,IC50,[4]; [9],> 10000 nM
same,IC50,[5]; [10],< 100 nM
"CN(Cc1nc2c(N3CCOCC3)nc(-c3ccc4c(c3)OCO4)nc2n1C)c1ncc(C(=O)NO)cn1 [CLJ-36, 2-(((2-(benzo[d][1,3]dioxole-5-yl)-9-methyl-6-morpholine-9H-purine-8-yl))methyl(methyl)amino)-N-hydroxyl pyrimidine-5-formamide]",IC50,[1]; [6],0.1 to 10 nM
same,IC50,[1]; [11],0.1 to 10 nM
same,IC50,[2]; [7],0.1 to 10 nM
same,IC50,[2]; [12],0.1 to 10 nM
same,IC50,[3]; [8],0.1 to 10 nM
same,IC50,[3]; [13],0.1 to 10 nM
same,IC50,[4]; [9],> 10000 nM
same,IC50,[5]; [10],< 1 nM
same,IC50,[5]; [14],< 1 nM
"CN(Cc1nc2c(N3CCOCC3)nc(-c3ccsc3)nc2n1C)c1ncc(C(=O)NO)cn1 [CLJ-22, 2-(((2-(3-thienyl)-9-methyl-6-morpholine-9H-purine-8-yl))methyl(methyl)amino)-N-hydroxyl pyrimidine-5-formamide]",IC50,[1]; [6],0.1 to 10 nM
same,IC50,[1]; [11],0.1 to 10 nM
same,IC50,[2]; [7],0.1 to 10 nM
same,IC50,[2]; [12],0.1 to 10 nM
same,IC50,[3]; [8],0.1 to 10 nM
same,IC50,[3]; [13],0.1 to 10 nM
same,IC50,[4]; [9],> 10000 nM
same,IC50,[5]; [10],< 1 nM
same,IC50,[5]; [14],< 1 nM
"CCCCN(Cc1nc2c(N3CCOCC3)nc(-c3ccc4[nH]ncc4c3)nc2n1C)c1ncc(C(=O)NO)cn1 [CLJ-17, N-hydroxy-2-(((2-(1H-indazole-5-yl)-9-methyl-6-morpholine-9H-purine-8-yl))methyl(butyl)amino)pyrimidine-5-formamide]",IC50,[1]; [6],> 1000 nM
same,IC50,[2]; [7],> 1000 nM
same,IC50,[3]; [8],> 1000 nM
same,IC50,[4]; [9],> 10000 nM
same,IC50,[5]; [10],100 to 1000 nM
CN(Cc1nc2c(N3CCOCC3)nc(Cl)nc2n1C)c1ncc(C(=O)NO)cn1 [CLJ-68],IC50,[1]; [6],10 to 100 nM
same,IC50,[2]; [7],10 to 100 nM
same,IC50,[3]; [8],10 to 100 nM
same,IC50,[4]; [9],> 10000 nM
same,IC50,[5]; [10],< 100 nM
"COc1ccc(-c2nc(N3CCOCC3)c3nc(CN(C)c4ncc(C(=O)NO)cn4)n(C4CCCC4)c3n2)cc1 [CLJ-32, 2-(((9-cyclopentyl-2(4-methoxyphenyl)-6-morpholine-9H-purine-8-yl)methyl)(methyl)amino)-N-hydroxyl pyrimidine-5-formamide]",IC50,[1]; [6],> 1000 nM
same,IC50,[2]; [7],> 1000 nM
same,IC50,[3]; [8],> 1000 nM
same,IC50,[4]; [9],> 10000 nM
same,IC50,[5]; [10],100 to 1000 nM
CN(Cc1nc2c(N3CCOCC3)nc(-c3cc(C(F)(F)F)cc(C(F)(F)F)c3)nc2n1C)c1ncc(C(=O)NO)cn1 [CLJ-56],IC50,[1]; [6],100 to 1000 nM
same,IC50,[2]; [7],10 to 100 nM
same,IC50,[3]; [8],100 to 1000 nM
same,IC50,[4]; [9],> 10000 nM
same,IC50,[5]; [10],< 100 nM
"CN(Cc1nc2c(N3CCOCC3)nc(-c3cccs3)nc2n1C)c1ncc(C(=O)NO)cn1 [CLJ-18, 2-(((2-(2-thienyl)-9-methyl-6-morpholine-9H-purine-8-yl))methyl(methyl)amino)-N-hydroxyl pyrimidine-5-formamide]",IC50,[1]; [6],10 to 100 nM
same,IC50,[2]; [7],0.1 to 10 nM
same,IC50,[3]; [8],0.1 to 10 nM
same,IC50,[4]; [9],> 10000 nM
same,IC50,[5]; [10],< 100 nM
CC(C)=CCN(CC=C(C)C)c1ccc(-c2nc(N3CCOCC3)c3nc(CN(C)c4ncc(C(=O)NO)cn4)n(C)c3n2)cc1 [CLJ-49],IC50,[1]; [6],10 to 100 nM
same,IC50,[2]; [7],10 to 100 nM
same,IC50,[3]; [8],100 to 1000 nM
same,IC50,[4]; [9],> 10000 nM
same,IC50,[5]; [10],< 100 nM
"COc1cc(-c2nc(N3CCOCC3)c3nc(CN(C)c4ncc(C(=O)NO)cn4)n(C)c3n2)cc(OC)c1OC [CLJ-35, 2-(((2-(3,4,5-trimetoxyphenyl)-9-methyl-6-morpholine-9H-purine-8-yl))methyl(methyl)amino)-N-hydroxyl pyrimidine-5-formamide]",IC50,[1]; [6],10 to 100 nM
same,IC50,[2]; [7],0.1 to 10 nM
same,IC50,[3]; [8],10 to 100 nM
same,IC50,[4]; [9],> 10000 nM
same,IC50,[5]; [10],< 100 nM
"CN(Cc1nc2c(N3CCOCC3)nc(-c3cccnc3)nc2n1C)c1ncc(C(=O)NO)cn1 [CLJ-9, 2-(((2-(3-pyridyl)-9-methyl-6-morpholine-9H-purine-8-yl))methyl(methyl)amino)-N-hydroxyl pyrimidine-5-formamide]",IC50,[1]; [6],10 to 100 nM
same,IC50,[2]; [7],0.1 to 10 nM
same,IC50,[3]; [8],10 to 100 nM
same,IC50,[4]; [9],> 10000 nM
same,IC50,[5]; [10],< 1 nM
same,IC50,[5]; [14],< 1 nM
"CN(Cc1nc2c(N3CCOCC3)nc(-c3cncnc3)nc2n1C)c1ncc(C(=O)NO)cn1 [CLJ-10, 2-(((2-(pyrimidine-5-yl)-9-methyl-6-morpholine-9H-purine-8-yl))methyl(methyl)amino)-N-hydroxyl pyrimidine-5-formamide]",IC50,[1]; [6],100 to 1000 nM
same,IC50,[2]; [7],10 to 100 nM
same,IC50,[3]; [8],10 to 100 nM
same,IC50,[4]; [9],< 100 nM
same,IC50,[4]; read-out: inhibition value IC50 to the activity of PI3Kα,< 100 nM
same,IC50,[5]; [10],< 100 nM
"Nc1cc(F)ccc1NC(=O)c1ccc(CNC(=O)/C=C/c2cccnc2)cc1 [Chidamide, chidamide, reference compound]",IC50,[1]; [6],> 1000 nM
same,IC50,[2]; [7],100 to 1000 nM
same,IC50,[3]; [8],> 1000 nM
"CCCCn1c(CN(C)c2ncc(C(=O)NO)cn2)nc2c(N3CCOCC3)nc(-c3ccc(OC)cc3)nc21 [CLJ-33, N-hydroxy-2-(((2-(4-methoxyphenyl)-6-morpholino-9-butyl-9H-purine-8-yl)methyl)(methyl)amino)pyrimidine-5-formamide]",IC50,[4]; [9],> 10000 nM
same,IC50,[5]; [10],100 to 1000 nM
CN(Cc1nc2c(N3CCOCC3)nc(-c3ccc(NS(=O)(=O)CCCCl)cc3)nc2n1C)c1ncc(C(=O)NO)cn1 [CLJ-51],IC50,[4]; [9],> 10000 nM
same,IC50,[5]; [10],< 100 nM
"COc1ccc(-c2nc(N3CCN(CCO)CC3)c3nc(CN(C)c4ncc(C(=O)NO)cn4)n(C)c3n2)cc1 [CLJ-70, N-hydroxy-2-(((2-(4-methoxyphenyl)-9-methyl-6-(4-(2-hydroxyethylpiperazine)-1-yl)-9H-purine-8-yl)methyl)(methyl)amino)pyrimidine-5-formamide]",IC50,[4]; [9],> 10000 nM
same,IC50,[5]; [10],< 100 nM
"CN(Cc1nc2c(N3CCOCC3)nc(-c3cccc(OCCO)c3)nc2n1C)c1ncc(C(=O)NO)cn1 [CLJ-41, 2-(((2-(3-(2-hydroxylethyoxyl)phenyl)-9-methyl-6-morpholine-9H-purine-8-yl))methyl(methyl)amino)-N-hydroxyl pyrimidine-5-formamide]",IC50,[4]; [9],100 to 1000 nM
same,IC50,[5]; [10],100 to 1000 nM
CN(Cc1nc2c(N3CCOCC3)nc(-c3ccccc3NS(C)(=O)=O)nc2n1C)c1ncc(C(=O)NO)cn1 [CLJ-53],IC50,[4]; [9],> 10000 nM
same,IC50,[5]; [10],< 100 nM
